Measurements as given in patent US8481459B2, “Chemical inhibitors of ethylene biosynthesis” (Academia Sinica, priority 2010, dated 2013).
“Also recorded” adds a separate entry of the source.

Legend:
[1] = test system: etiolated eto1-4 seedlings; assay: Triple response phenotype / hypocotyl length of etiolated eto1-4 seedlings; assay type: in vivo, Arabidopsis thaliana; conditions: for ranking in both hypocotyl length and ethylene level assays / suppression of the eto1-4 (triple response) phenotype: 10 μM; for ranking in both hypocotyl length and ethylene level assays: etiolated eto1-4, FIG. 3; for suppression of the eto1-4 (triple response) phenotype: germinated in the dark for 3 days; for effectiveness in phenotypical assay: etiolated eto1-4 seedlings; for concentration at which hypocotyl elongation becomes visible / concentration reaching maximal / nearly saturated effect on hypocotyl: eto1-4, 3 days in the dark, dose series
Method: All mutants and transgenic plants were derived from the wild-type Arabidopsis thaliana Columbia ecotype (Col-0) and cultivated under a long-day condition (16-h light/8-h dark at 22° C.) under exemplary e light (100-150 μE m^−2 s^−1). A reporter construct, 5×EBS::LUC (a generous gift from Drs. Hai Li and Anna N. Stepanova, Salk Institute, USA), containing 5 copies of EIN3 binding sequence (EBS) fused with luciferase gene (LUC) was transformed to eto1-4 and subsequently used for screening compounds of a chemical library. Ethylene mutants eto1-4, eto2-1, ctr1-1 and the EIN3 overexpression line (35S::EIN3) were described previously (Solano, et al. (1998) Genes Dev 12, 3703-3714). Seeds were sterilized with 30% bleach for 6 min and sown in half-strength Murashige and Skoog (0.5×MS) medium supplemented with 0.8% agar and stratified in the dark at 4° C. for 3-4 days before germination. For analysis of the triple response phenotype, stratified seeds were grown in the dark at 22° C. for 3 days before scoring the phenotype.
A DIVERSet library (ChemBridge Inc.) containing 10,000 small molecules (in DMSO) was used for chemical screening. Three rounds of chemical screenings were carried out in 0.5×MS agar medium containing individual chemicals in each well of 96- and 24-well micro-titer plates. The initial screening was performed by sowing 10 to 15 seeds in the wells of micro-titer plates containing small molecules at 50 μM to score the long-hypocotyl phenotype. For the second and third screenings, we used 25 μM of small molecules selected from the first round of screening to score and confirm the phenotype. The seedling phenotype was scored by use of a digital camera attached to a Zeiss stereomicroscope (SteREO V8), and quantitation of hypocotyl length was performed by use of NIH Image J software. AVG and silver thiosulfate (STS, by mixing silver nitrate and sodium thiosulfate at a 1:4 molar ratio immediately before use) were obtained from Sigma and used as controls to suppress ethylene biosynthesis and perception, respectively. Agar medium was supplemented with 1-aminocyclopropane-1-carboxylic acid (10 μM, Merck) to induce the triple response in etiolated seedlings.
Shortened hypocotyls in etiolated seedlings is one of the triple response phenotypes (Guzman, et al. (1990) Plant Cell 2, 513-523; Wang, et al. (2004) Nature 428, 945-950). Two chemical compounds negating ethylene response, AVG and STS, were included as a control for comparison.

[2] = test system: etiolated eto2-1 seedlings; assay: Hypocotyl length of etiolated eto2-1 seedlings; assay type: in vivo, Arabidopsis thaliana; conditions: 30 μM
Method: Seeds of eto1-4 and eto2-1 were germinated in the dark in the absence (−) or presence (+) of different concentrations (10, 20 or 30 μM) of exemplary invention compounds and AVG. The length of hypocotyls and ethylene levels were quantified in 3-day-old etiolated seedlings. Data represent means±SE (n>40), and the experiments were repeated 3 times with similar results.
Therefore, ACC oxidase as the primary target of exemplary the exemplary invention compounds can be excluded. To determine whether the exemplary invention compounds are inhibitors of ACC synthase, the following assays were used. First, the hypocotyl length and ethylene level in the dominant eto2-1 mutant were analyzed, which bears a missense mutation at the 3′ terminus of ACS5 to generate a mutated yet functional protein, ACS5^eto2-1. […] Second, the effect of exemplary invention compounds on the enzymatic activity of recombinant Arabidopsis ACS5 protein by an in vitro ACS activity assay was analyzed (Chae, et al. (2003) Plant Cell 15, 545-559; Savaldi-Goldstein, et al. (2008) Proc Natl Acad Sci USA 105, 15190-15195).

[3] = target: T1, recombinant Arabidopsis ACS5 (Arabidopsis thaliana, UniProt Q37001); assay: Enzyme kinetics assay of ACS5 (Lineweaver-Burk); assay type: biochemical; set-up: Vmax of recombinant ACS5 in the presence of inhibitor: unit not given here
T1 construct: The full-length cDNA of Arabidopsis ACS5 (At5g65800) was cloned to pETDuet (Novagen); 6His (N); made in house; host or cells: E. coli BL21-CodonPlus (Stratagene)
T1 sequence (Q37001 1-470): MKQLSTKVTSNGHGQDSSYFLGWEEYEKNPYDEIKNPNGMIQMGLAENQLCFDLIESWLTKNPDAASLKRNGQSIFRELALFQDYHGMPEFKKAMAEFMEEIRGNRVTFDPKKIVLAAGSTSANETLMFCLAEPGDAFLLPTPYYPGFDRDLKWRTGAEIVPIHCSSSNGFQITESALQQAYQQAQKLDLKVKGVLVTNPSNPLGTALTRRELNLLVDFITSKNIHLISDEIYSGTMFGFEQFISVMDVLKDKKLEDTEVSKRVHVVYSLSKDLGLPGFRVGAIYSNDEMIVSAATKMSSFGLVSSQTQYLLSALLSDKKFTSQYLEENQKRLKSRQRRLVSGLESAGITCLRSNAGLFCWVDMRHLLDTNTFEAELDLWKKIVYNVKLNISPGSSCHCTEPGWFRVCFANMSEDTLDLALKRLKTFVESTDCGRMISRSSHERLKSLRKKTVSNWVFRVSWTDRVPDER
Method: For the enzyme kinetics assay, different concentrations of SAM (20, 40, 60, 80, 100, 150, and 200 μM) were used to determine the Km and Vmax of purified recombinant ACS5. In addition, two concentrations, 0.05 and 0.1 μM, of AVG and compound 7303 were tested to determine the inhibition constant Ki. Reactions of enzyme kinetics assay were performed by first incubating chemical inhibitors or DMSO with different concentrations of SAM in 20-mL GC vials, then 1.6 μg purified ACS5 was added to initiate the enzyme reaction for 30 min at 25° C. Gas chromatography was used to quantitate the levels of ethylene chemically converted from ACC as described previously. Data analysis of enzyme kinetics assays and preparation of Lineweaver-Burk plots were done by SIGMAPLOT (Systat Software Inc.).
Because the exemplary invention compounds and AVG have distinct chemical structures (Table 1), they may use different mechanisms to inhibit ACC synthase. To clarify this issue, compound 7303 was selected as a representative of the exemplary invention compounds for enzyme kinetic assay to determine the inhibitory mechanism. […] Data from the enzyme kinetic assay support that the exemplary invention compounds are novel inhibitors of ACC synthase different from AVG and show uncompetitive inhibition in ACS activity.

SMILES | ranking in both hypocotyl length and ethylene level assays [1] | suppression of the eto1-4 (triple response) phenotype [1] | effectiveness in phenotypical assay [1] | concentration at which hypocotyl elongation becomes visible [1] [µM] | concentration reaching maximal / nearly saturated effect on hypocotyl [1] [µM] | suppression in hypocotyl length [2] [%] | Vmax of recombinant ACS5 in the presence of inhibitor ([3]; 0.1 μM inhibitor, without inhibitor 95.1±5.0) | inhibition pattern (mechanism) ([3]; Lineweaver-Burk plot, 0.05 and 0.1 μM) | Vmax ([3]; kinetic parameters of recombinant ACS5 fitted for the inhibitor series, substrate SAM) [µmol/h/mg] | Ki ([3]; recombinant ACS5, inhibitor at 0.05 and 0.1 μM, read-out: calculated inhibition constant (Ki)) [nM]
Cc1ccc(C2CC(=O)c3cnc(NC4CCCC4)nc3C2)cc1 (stereo not drawn) [Compound 9370] | most effective | Suppression; also recorded: effectiveness comparable to that of silver nitrate | highly effective | 0.1 | 5 |  |  |  |  | 
COc1ccc(C2CC(=O)c3cnc(Nc4ccccc4)nc3C2)cc1 (stereo not drawn) [Compound 7303] | most effective | Suppression; also recorded: effect comparable to that of compounds 9393 and 9370 | highly effective; also recorded: the most effective | 0.1 | 5 | 25 | 50.5±1.2 | uncompetitive inhibitor | 92.4 | 98.4 ± 6.7
CC1(C)CC(=O)c2cnc(NC3CCCC3)nc2C1 [Compound 9393] | most effective | Suppression; also recorded: effectiveness comparable to that of silver nitrate | highly effective |  |  |  |  |  |  | 
